# Measured values: ChEMBL document CHEMBL3507680, “University of Dundee, Gates Library screen for HepG2 cell viability”
# Test: Human HepG2 cell viability assay in 384 well format
# Format: toxicity, cell-based
# Parameters: dose 125 nL, time 70.5 hour; concentration not given beside the values
# Details: HepG2 cells, read-out: Inhibition
row,Compound,cytotoxicity at 70.5 h [%]
1,O=C1NCC2=C1C(c1ccccc1)Nc1ccccc1N2 (configuration not stated),-2.81
2,O=C(O)Cn1ccc(=O)c2cc(Cl)ccc21,-16.7
3,O=C(O)Cn1ccc(=O)c2ccccc21,-14.9
4,Nc1cccnc1N1CCC(c2ccccc2)CC1,25
5,COC(=O)CCn1ccc(=O)c2cc(F)ccc21,-8.87
6,CC(C)NC(=O)CN1CCCNCC1,-0.253
7,COCCn1ccc2ccc(C(=O)O)cc21,-9.99
8,CC(C)CCc1n[nH]c(C(=O)O)c1Cl,16.9
9,Nc1nc2c(c3c1C(=O)NC3=O)CCC2,-14.7
10,O=C1NCCCc2c1oc1ccc(O)c(CN3CCOCC3)c21,30.3
11,NC(=O)CN1CC[C@@]2(O)CCCC[C@H]2[C@@H]1c1ccc2c(c1)OCO2,-2.64
12,COc1ccc(C(=O)N2CC[C@@]3(O)CCCC[C@H]3C2)cc1OC,5.36
13,O=C(Cn1ccc2cc(Br)ccc21)NC[C@@H]1CCCN2CCCC[C@H]12,9.59
14,COC(=O)CNC(=O)Cn1ccc2cccc(OC)c21,7.12
15,CCC(C)N1C(=O)c2ccc(C(=O)NCCc3c[nH]cn3)cc2C1=O (configuration not stated),-2.09
16,COc1cccc2ccn(CC(=O)NCC(C)C)c12,11.2
17,CC(=O)c1cn(CC(=O)N[C@H](C(=O)O)C(C)C)c2ccccc12,-13.5
18,CSCC[C@H](NC(=O)Cn1ccc2ccc(Cl)cc21)C(=O)O,-16.7
19,CC(=O)c1cn(CCC(=O)N[C@@H](CC(C)C)C(=O)O)c2ccccc12,-7.76
20,O=C1CC(c2ccc(O)cc2)c2c(c(C(=O)O)cn2-c2ccccc2)N1 (configuration not stated),-10.6
21,COc1cccc(-c2nc(C)c(C(=O)N[C@@H](CCSC)C(=O)O)s2)c1,-21.7
22,CC(C)CNC(=O)c1cn(C)c(=O)c2ccccc12,7.18
23,CN(Cc1ccc(F)cc1)C(=O)Nc1cccnc1N1CCCC1,-6.22
24,CC(C)c1n[nH]c(C2CN(C(=O)c3ncoc3C(C)C)CCO2)n1 (configuration not stated),-2.71

row,Compound,cytotoxicity at 70.5 h [%]
1,CC(Cn1cccn1)NCCCc1nc(-c2cccs2)no1 (configuration not stated),1.95
2,CC1CCCCN1CCNC(=O)c1scnc1Cl (configuration not stated),-12.6
3,CC(C)c1noc(C(C)N2CCN(Cc3cccnc3)CC2)n1 (configuration not stated),-5.62
4,CCC(O)CN1CCN(C(=O)c2cnc3n[nH]c(C)c3c2)CC1 (configuration not stated),-7.48
5,Cc1nc(C)n(CC2CN(Cc3ccc4c(c3)OCCO4)CCO2)n1 (configuration not stated),-14.3
6,CCn1nc2c(cc1=O)CN(Cc1nc(C)c(C)o1)CC2,-15.3
7,Cc1ncc2c(n1)CN(Cc1nc(-c3ccsc3)no1)CC2,-21.5
8,CC(c1nc(C(C)(C)C)no1)N1CCN(Cc2ccco2)CC1 (configuration not stated),-15
9,Cc1cnc2c(S(=O)(=O)NCC3CC3)cccc2c1,-1.56
10,O=C(NCc1ccc(Cl)s1)NCc1nnc2n1CCCCC2,-14.9
11,CC1CCN(CCNC(=O)c2scnc2Cl)CC1,18.5
12,COc1ccnc(N2CCN(CC(=O)N3CCC(C)CC3)CC2)n1,-13.2
13,COCCN(CCOC)C(=O)Nc1cc(C(F)(F)F)c[nH]c1=O,-15.1
14,COc1ccnc(N2CCN(CC(=O)N3CCOC(C)C3)CC2)n1 (configuration not stated),-8.38
15,Cc1nc2ccnn2c(C)c1CCC(=O)N1CCN2CCCCC2C1 (configuration not stated),-9.21
16,Cc1cc(C)n(C2CCCN(C(=O)c3csc(C4CC4)n3)C2)n1 (configuration not stated),-11
17,CC(=O)Nc1nc(C(=O)N2CCCC(n3ccnc3C)C2)cs1 (configuration not stated),-14.1
18,CCc1ncc2c(n1)CN(Cc1nc(-c3cccnc3)no1)CC2,-6.75
19,CC(C)n1nc2c(cc1=O)CN(Cc1nc3ccccc3o1)CC2,10.1
20,O=C(c1cc[nH]n1)N1CCCC(c2cc(C(F)(F)F)[nH]n2)C1 (configuration not stated),-17.8
21,O=C(c1ccco1)N1CCCC(c2cc(C(F)(F)F)[nH]n2)C1 (configuration not stated),-7.38
22,Cc1cc(C2CCCN(C(=O)c3ccc(Cl)o3)C2)n[nH]1 (configuration not stated),-8.12
23,Cn1ccnc1Sc1ccc(N)cn1,0.97
